Calls of active or inactive are those of the source. No cut-off for these calls is given here.
Key:
[1] = system: RAW264.7; assay: Inhibition of RANKL-induced osteoclast differentiation in mouse RAW264.7 cells assessed as decrease in TRAP activity at 20 uM after 5 days in presence of ERbeta antagonist PHTPP by microscopy; assay type: functional, cell-based
[2] = system: RAW264.7; assay: Inhibition of RANKL-induced osteoclast differentiation in mouse RAW264.7 cells harboring ERalpha siRNA assessed as decrease in NFATc1 mRNA level at 20 uM after 24 hrs by qRT-PCR method; assay type: functional, cell-based
[3] = target: MAP kinase p38 (Mus musculus) (UniProt P47811+O08911+Q9WUI1+Q9Z1B7); assay: Inhibition of p38 MAPK signaling pathway in mouse RAW264.7 cells assessed as reduction in RANKL-induced JNK phosphorylation at 10 to 40 uM after 30 mins by Western blot method; assay type: cell-based
[4] = species on record: Homo sapiens; assay: Selectivity ratio of IC50 for recombinant human full length untagged ERbeta expressed in insect cells to IC50 for recombinant human full length untagged ERalpha expressed in insect cells
[5] = target: T1, Estrogen receptor (Mus musculus) (UniProt P19785); assay: Induction of estrogen receptor-mediated AMPKalpha1 activation in mouse RAW264.7 cells at 20 uM in presence of PKA inhibitor H89; assay type: cell-based
T1 sequence (whole entry): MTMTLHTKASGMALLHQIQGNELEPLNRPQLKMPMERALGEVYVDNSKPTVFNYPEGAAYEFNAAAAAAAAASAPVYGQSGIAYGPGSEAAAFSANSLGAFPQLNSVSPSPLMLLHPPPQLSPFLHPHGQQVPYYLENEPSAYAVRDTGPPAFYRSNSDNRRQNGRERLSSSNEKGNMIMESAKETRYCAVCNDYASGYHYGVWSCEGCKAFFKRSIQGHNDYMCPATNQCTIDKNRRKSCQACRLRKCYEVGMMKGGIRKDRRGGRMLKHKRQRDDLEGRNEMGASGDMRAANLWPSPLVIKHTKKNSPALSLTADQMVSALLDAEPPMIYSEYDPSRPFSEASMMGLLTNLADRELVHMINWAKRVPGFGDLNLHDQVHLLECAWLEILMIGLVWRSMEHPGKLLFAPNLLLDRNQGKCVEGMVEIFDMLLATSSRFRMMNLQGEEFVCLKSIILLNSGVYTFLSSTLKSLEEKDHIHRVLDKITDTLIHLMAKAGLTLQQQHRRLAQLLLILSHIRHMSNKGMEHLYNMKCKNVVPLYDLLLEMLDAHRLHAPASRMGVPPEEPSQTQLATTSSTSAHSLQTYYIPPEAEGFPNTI

[6] = target: T1, Estrogen receptor (Mus musculus); assay: Induction of estrogen receptor-mediated AMPKalpha1 activation in mouse RAW264.7 cells at 20 uM in presence of estrogen receptor antagonist fulvestrant; assay type: cell-based
[7] = system: RAW264.7; assay: Inhibition of RANKL-induced osteoclast differentiation in mouse RAW264.7 cells harboring ERbeta siRNA assessed as decrease in size of TRAP-positive multinucleated cells at 20 uM after 5 days by microscopy; assay type: functional, cell-based
[8] = system: RAW264.7; assay: Inhibition of RANKL-induced osteoclast differentiation in mouse RAW264.7 cells assessed as decrease in TRAP activity at 20 uM after 5 days in presence of ERalpha antagonist MPP by microscopy; assay type: functional, cell-based
[9] = system: RAW264.7; assay: Inhibition of RANKL-induced osteoclast differentiation in mouse RAW264.7 cells harboring AMPKalpha1 siRNA assessed as decrease in TRAP activity at 10 to 40 uM after 5 days by microscopy; assay type: functional, cell-based
[10] = system: RAW264.7; assay: Inhibition of NF-kappaB/p38 MAPK signaling pathway in mouse RAW264.7 cells assessed as reduction in RANKL-induced c-Fos mRNA level after 24 hrs by qRT-PCR method; assay type: cell-based
[11] = system: RAW264.7; assay: Inhibition of NF-kappaB signaling pathway in mouse RAW264.7 cells assessed as reduction in RANKL-induced IKKbeta phosphorylation at 10 to 40 uM after 30 mins by Western blot method; assay type: cell-based
[12] = system: RAW264.7; assay: Inhibition of RANKL-induced osteoclast differentiation in mouse RAW264.7 cells assessed as decrease in NFATc1 mRNA level at 20 uM after 24 hrs in presence of ERbeta antagonist PHTPP by qRT-PCR method; assay type: functional, cell-based
[13] = system: RAW264.7; assay: Inhibition of NF-kappaB/p38 MAPK signaling pathway in mouse RAW264.7 cells assessed as reduction in RANKL-induced NFATc1 mRNA level after 24 hrs by qRT-PCR method; assay type: cell-based
[14] = system: Mus musculus; assay: Anti-osteoporotic activity in Balb/c mouse assessed as inhibition of OVX-mediated decrease in trabecular number in femur at 25 to 100 mg/kg, ip administered for 4 weeks daily by microcomputed tomography; assay type: functional, organism-based
[15] = system: Mus musculus; assay: Anti-osteoporotic activity in Balb/c mouse assessed as inhibition of OVX-induced TRAP mRNA expression level in bone marrow at 25 to 100 mg/kg, ip administered for 4 weeks daily by qRT-PCR method; assay type: functional, organism-based
[16] = system: RAW264.7; assay: Inhibition of RANKL-induced osteoclast differentiation in mouse RAW264.7 cells assessed as decrease in c-Fos mRNA level at 20 uM after 24 hrs in presence of ERbeta antagonist PHTPP by qRT-PCR method; assay type: functional, cell-based
[17] = system: RAW264.7; assay: Inhibition of RANKL-induced osteoclast differentiation in mouse RAW264.7 cells assessed as decrease in size of TRAP-positive multinucleated cells after 5 days by microscopy; assay type: functional, cell-based
[18] = target: T1, Estrogen receptor (Mus musculus); assay: Induction of estrogen receptor-mediated AMPKalpha1 activation in mouse RAW264.7 cells at 20 uM in presence of CAMKKbeta inhibitor STO609; assay type: cell-based
[19] = system: RAW264.7; assay: Inhibition of RANKL-induced osteoclast differentiation in mouse RAW264.7 cells assessed as decrease in size of TRAP-positive multinucleated cells at 20 uM after 5 days in presence of ERbeta antagonist PHTPP by microscopy; assay type: functional, cell-based
[20] = system: RAW264.7; assay: Inhibition of RANKL-induced osteoclast differentiation in mouse RAW264.7 cells harboring ERbeta siRNA assessed as decrease in TRAP mRNA level at 20 uM after 24 hrs by qRT-PCR method; assay type: functional, cell-based
[21] = system: RAW264.7; assay: Inhibition of RANKL-induced osteoclast differentiation in mouse RAW264.7 cells assessed as decrease in TRAP mRNA level at 20 uM after 24 hrs in presence of ERalpha antagonist MPP by qRT-PCR method; assay type: functional, cell-based
[22] = system: RAW264.7; assay: Inhibition of RANKL-induced osteoclast differentiation in mouse RAW264.7 cells harboring ERalpha siRNA assessed as decrease in number of TRAP-positive multinucleated cells at 20 uM after 5 days by microscopy; assay type: functional, cell-based
[23] = system: RAW264.7; assay: Inhibition of RANKL-induced osteoclast differentiation in mouse RAW264.7 cells harboring AMPKalpha1 siRNA assessed as decrease in NFATc1 mRNA level at 20 uM after 24 hrs by qRT-PCR method; assay type: functional, cell-based
[24] = system: Mus musculus; assay: Anti-osteoporotic activity in Balb/c mouse assessed as decrease in OVX-induced trabecular spacing in femur at 25 to 100 mg/kg, ip administered for 4 weeks daily by microcomputed tomography; assay type: functional, organism-based
[25] = system: RAW264.7; assay: Inhibition of NF-kappaB/p38 MAPK signaling pathway in mouse RAW264.7 cells assessed as reduction in RANKL-induced NFATc1 nuclear translocation after 24 hrs by Western blot method; assay type: cell-based

Question: How did the inhibition [1] turn out when `COc1cc(C2Oc3c(OC)cc(/C=C/CO)cc3C2CO)ccc1O` (stereo not given) was run?
Answer: Active

Question: What about the inhibition [2] of the same compound?
Answer: inactive

Question: What about the inhibition [3] of the same compound?
Answer: inactive

Question: What about the Ratio IC50 [4] of the same compound?
Answer: 4.63

Question: What about the Activity [5] of the same compound?
Answer: Active

Question: What about the Activity [6] of the same compound?
Answer: inactive

Question: What about the inhibition [7] of the same compound?
Answer: Active

Question: What about the inhibition [8] of the same compound?
Answer: inactive

Question: And the inhibition [9]?
Answer: inactive

Question: And the inhibition [10]?
Answer: Dose-dependent effect

Question: And the inhibition [11]?
Answer: Active

Question: What about the inhibition [12] of the same compound?
Answer: Active

Question: And the inhibition [13]?
Answer: Dose-dependent effect

Question: And the inhibition [14]?
Answer: Active

Question: What about the inhibition [15] of the same compound?
Answer: Active

Question: What about the inhibition [16] of the same compound?
Answer: Active

Question: What about the inhibition [17] of the same compound?
Answer: Dose-dependent effect

Question: What about the Activity [18] of the same compound?
Answer: Active

Question: And the inhibition [19]?
Answer: Active

Question: And the inhibition [20]?
Answer: Active

Question: And the inhibition [21]?
Answer: inactive

Question: What about the inhibition [22] of the same compound?
Answer: inactive

Question: What about the inhibition [23] of the same compound?
Answer: inactive

Question: What about the Activity [24] of the same compound?
Answer: Active

Question: And the inhibition [25]?
Answer: Dose-dependent effect
